The MIC90 is an inhibitory concentration at the 90% level, which refers to growth in some studies and to a panel of isolates in others. As a reminder, the logD is the decadic logarithm of the distribution of all forms, ionised or not, between an organic phase and buffer at a given pH. A low value points to lower lipophilicity. One may read the half-life as the time needed for the level to fall by half in the phase considered. As usually defined, the pIC50 is −log10 of the IC50, conventionally taken in molar units.

Here are results for 24 compounds from ChEMBL document CHEMBL5625205, “3-Methoxy-2-phenylimidazo[1,2-b]pyridazines highly active against Mycobacterium tuberculosis and Mycobacterium marinum” (Eur J Med Chem, 2023).

pIC50: −log10 of the molar value. Values after ≈ are worked out from the molar mass of the structure shown. Active and inactive are the calls of the source.

For data set [1], the system named is Mycobacterium tuberculosis. The data set is described as follows: Antimycobacterial activity against Mycobacterium tuberculosis H37Ra assessed as inhibition of bacterial growth measured for 5 days by luminometer. The format is functional. The conditions noted are these: 120 h, time 5 day.
Data set [2] concerns Mycobacterium marinum. As to the kind of experiment: Antimycobacterial activity against Mycobacterium marinum assessed as inhibition of bacterial growth measured for 5 days by luminometer. The class given is functional. The conditions noted are these: 120 h, time 5 day.
Data set [3] is described as follows: Octanol-water distribution coefficient, logD of the compound at pH 7.4 by HPLC analysis. The format is physicochemical.
The nature of data set [4]: Kinetic solubility of compound in DMSO at pH 2 incubated for 30 mins by laser nephelometry. The class given is physicochemical. The conditions noted are these: read-out: Kinetic_solubility.
Data set [5] is described as follows: Kinetic solubility of compound in DMSO at pH 6.5 incubated for 30 mins by laser nephelometry. The class given is physicochemical. The conditions noted are these: read-out: Kinetic_solubility.
Data set [6] can be described thus: Metabolic stability in mouse liver microsomes assessed as half life incubated for 60 mins in presence of NADPH. The format is ADME, Microsome. A general note: Liver microsomes are a subcellular fraction often used to study metabolism.
Data set [7] can be described thus: Metabolic stability in mouse liver microsomes assessed as intrinsic clearance incubated for 60 mins in presence of NADPH. The format is ADME, Microsome. The conditions noted are these: read-out: CLH.
The subject of data set [8] is Mycobacterium tuberculosis. As to the kind of experiment: Antimycobacterial activity against Mycobacterium tuberculosis H37Ra infected in mouse assessed as reduction in relative light unit in lung at 30 to 300 mg/kg,po administrated once daily for 5 days. The format is functional, organism-based. The conditions noted are these: dose 30-300 mg/kg, time 5.0 day.
The test system of data set [9] is Mycobacterium tuberculosis. As to the kind of experiment: Antimycobacterial activity against Mycobacterium tuberculosis H37Ra infected in mouse assessed as reduction in relative light unit in lung at 10 mg/kg,po administrated once daily for 5 days. The format is functional, organism-based. The conditions noted are these: time 5.0 day.
The subject of data set [10] is Mycobacterium tuberculosis. The data set is described as follows: Antimycobacterial activity against Mycobacterium tuberculosis H37Ra infected in mouse assessed as reduction in relative light unit in lung at 300 mg/kg,po administrated once daily for 5 days. The conditions noted are these: time 5.0 day. The class given is functional, organism-based.
Data set [11] has as its system A549. The data set is described as follows: Cytotoxicity against human A549 cells incubated for 48 hrs by MTT assay. The format is functional, cell-based. The conditions noted are these: A549, 48 h. In general terms: Tetrazolium assays rely on reduction of a dye to a coloured formazan, in cell work by metabolically active cells.

As for `COc1c(-c2ccc(F)cc2F)nc2ccc(N(C)Cc3ccccc3)nn12`, the MIC90 in [1] and in data set [2] was 0.64 µM (≈ 0.243 µg/mL) in each case. Moreover, the logD in [3] came to 4.6. In addition, the solubility kinetic at 0.5 h in data set [4] is 25 µg/mL (≈ 65.7 µM); in data set [5] it was 1.6 µg/mL (≈ 4.21 µM). Besides, the half-life in [6] stood at 8 min. For the same compound, the microsomal CLint in [7] was determined as 215 µL/min/mg. Further, the outcome in [8] was inactive.
For the compound `CO[C@H]1/C=C/O[C@@]2(C)Oc3c(C)c(O)c4c(O)c(c(/C=N/N5CCN(C)CC5)c(O)c4c3C2=O)NC(=O)/C(C)=C\C=C\[C@H](C)[C@H](O)[C@@H](C)[C@@H](O)[C@@H](C)[C@H](OC(C)=O)[C@@H]1C` [RIFAMPIN], the MIC90 in [1] came out at 0.073 µM (≈ 0.0601 µg/mL); in [2] it was 0.24 µM (≈ 0.198 µg/mL). Also, the outcome in [9] was Active.
Take `COc1cccc(CSc2ccc3nc(-c4ccccc4F)c(OC)n3n2)c1`: the MIC90 came to 1.26 µM (≈ 0.498 µg/mL) in [1] and 0.15 µM (≈ 0.0593 µg/mL) in data set [2]. Also, the result in [8] was inactive.
With `COc1c(-c2ccccc2F)nc2ccc(N(C)Cc3ccccc3)nn12`, the MIC90 in data set [1] and in data set [2] was 0.69 µM (≈ 0.25 µg/mL) in each case. This compound gave a logD in data set [3] of 4.5. Also, the solubility kinetic at 0.5 h in [4] is 25 µg/mL (≈ 69 µM); in [5], less than 1.6 µg/mL. Also, the half-life in data set [6] worked out at 4 min. Further, the microsomal CLint in [7] came to 405 µL/min/mg. For the same compound, in data set [8], the outcome was inactive.
As to `COc1cccc(CSc2ccc3nc(-c4ccccc4)c(OC)n3n2)c1`, the MIC90 is not above 1.66 µM in [1] and 2.65 µM (≈ 1 µg/mL) in data set [2]. In data set [3], the log distribution coefficient (logD) came to 4.8. The solubility kinetic at 0.5 h was 3.1 µg/mL (≈ 8.21 µM) in [4] and less than 1.6 µg/mL in data set [5]. Besides, the half-life in data set [6] was less than 2 min. The microsomal CLint in data set [7] is more than 866 µL/min/mg. The result in data set [10] was inactive. Also, the pIC50 in data set [11] was less than 3.59.
Take `COc1cccc(CSc2ccc3nc(-c4ccc(F)cc4)c(OC)n3n2)c1`: the MIC90 in [1] and in data set [2] was 0.63 µM (≈ 0.249 µg/mL) in each case. This compound also yielded a logD in [3] of 4.9. Further, the solubility kinetic at 0.5 h is 1.6 µg/mL (≈ 4.05 µM) in data set [4] and less than 1.6 µg/mL in data set [5]. For the same compound, the half-life in data set [6] is less than 2 min. The microsomal CLint in data set [7] was more than 866 µL/min/mg. Besides, the result in data set [8] was inactive.
In the case of `COc1c(-c2ccccc2)nc2ccc(SCc3nc4ccccc4n3C)nn12`, the MIC90 stood at 24.9 µM (≈ 10 µg/mL) in [1] and 250 µM (≈ 100 µg/mL) in data set [2].
Consider `Ic1c(-c2ccccc2)nc2ccc(OCc3ccccc3)nn12`, for which the MIC90 in data set [1] and in [2] was more than 230 µM throughout.
Consider `N#Cc1c(-c2ccccc2)nc2ccc(OCc3ccccc3)nn12`, for which the MIC90 in data set [1] and in data set [2] was more than 300 µM each time.
As for `COc1cccc(CSc2ccc3nc(-c4ccc(F)cc4)cn3n2)c1`, the MIC90 worked out at 27.4 µM (≈ 10 µg/mL) in data set [1] and 2.74 µM (≈ 1 µg/mL) in data set [2].
The corresponding values for `COc1cccc(CNc2ccc3nc(-c4cccc(F)c4)c(OC)n3n2)c1` are 52.9 µM (≈ 20 µg/mL) and 26.4 µM (≈ 9.99 µg/mL).
As to `CN(Cc1ccccc1)c1ccc2nc(-c3ccc(C(F)(F)F)cc3)c(O)n2n1`, the MIC90 in [1] was more than 251 µM; in data set [2] it was 251 µM (≈ 100 µg/mL).
For `CCOc1c(-c2ccccc2F)nc2ccc(SCc3cccc(OC)c3)nn12`, the MIC90 in data set [1] and in [2] was 3.05 µM (≈ 1.25 µg/mL) in each case.
On to `COc1c(-c2ccccc2)nc2ccc(OCc3ccccc3)nn12`, for which the MIC90 in [1] is 3.02 µM (≈ 1 µg/mL); in data set [2], 1.51 µM (≈ 0.5 µg/mL).
As for `COc1cccc(CNc2ccc3nc(-c4ccc(F)cc4)c(OC)n3n2)c1`, the results for the MIC90 in data set [1] and in [2] were 6.61 µM (≈ 2.5 µg/mL) and 13.2 µM (≈ 4.99 µg/mL), respectively.
The corresponding values for `Brc1c(-c2ccccc2)nc2ccc(OCc3ccccc3)nn12` are more than 260 µM and more than 260 µM.
The corresponding values for `COc1c(-c2ccccc2)nc2ccc(SC)nn12` are 18.4 µM (≈ 4.99 µg/mL) and 36.9 µM (≈ 10 µg/mL).
The corresponding values for `Cc1c(-c2ccccc2)nc2ccc(OCc3ccccc3)nn12` are 317 µM (≈ 100 µg/mL) and 317 µM (≈ 100 µg/mL).
For the compound `COc1cccc(CSc2ccc3nc(-c4ccc(F)cc4F)cn3n2)c1`, the MIC90 in [1] and in [2] was 261 µM (≈ 100 µg/mL) in each case.
In the case of `CN(Cc1ccccc1)c1ccc2nc(-c3ccc(Br)cc3)c(O)n2n1`, the MIC90 in data set [1] is 244 µM (≈ 99.9 µg/mL); in data set [2], more than 244 µM.
The corresponding values for `Oc1ccccc1-c1nc2ccc(SCc3ccccc3)nn2c1Br` are 243 µM (≈ 100 µg/mL) and 243 µM (≈ 100 µg/mL).
The corresponding values for `COc1c(-c2ccc(Cl)cc2)nc2ccc(N(C)Cc3ccccc3)nn12` are 6.6 µM (≈ 2.5 µg/mL) and 6.6 µM (≈ 2.5 µg/mL).
In the case of `COCCOc1c(-c2ccccc2)nc2ccc(SCc3ccccc3)nn12`, the figures for the MIC90 in data set [1] and in [2] were 255 µM (≈ 99.8 µg/mL) and 63.9 µM (≈ 25 µg/mL), respectively.
As for `COc1c(-c2ccc(F)cc2)nc2ccc(SCc3ccsc3)nn12`, the MIC90 in data set [1] worked out at 26.9 µM (≈ 9.99 µg/mL); in data set [2], 5.38 µM (≈ 2 µg/mL).
